Values quoted from earlier work, collected in US12624058B2, “Promoiety strategy to enhance drug activity” (UNIVERSITY OF SOUTHERN CALIFORNIA, priority 2020, dated 2026).

What was measured:
[1] = in vivo
Ad5 = conditions: immunosuppressed Syrian hamster model
[2] = in vivo; remark: listed apart in the source
multiple Ad types = conditions: cell culture; read-out: EC50, replication of multiple Ad types

Compound | oral bioavailability [1] [%] | efficacy against Ad5 replication and pathogenesis (Ad5) | nephrotoxicity [2] | EC50 (multiple Ad types) [nM] | GI side effect (Ad viremia; phase II clinical trial) | reduction of Ad viremia (Ad viremia; preemptive treatment, pediatric and adult patients)
Nc1ccn(C[C@@H](CO)OCP(=O)(O)O)c(=O)n1 [CDV, (S)-1-(3-hydroxy-2-phosphonomethoxypropyl)cytosine] | < 5 | effective | causes nephrotoxicity |  |  | 
CCCCCCCCCCCCCCCCOCCCOP(=O)(O)CO[C@H](CO)Cn1ccc(N)nc1=O [BCV] |  | effective | little or no nephrotoxicity | ~20 | symptomatic GI irritation was observed | reduced Ad viremia in some of these patients however, the result was not statistically significant
